Experiment: gradient 5% acetonitrile 3 min, to 50% in 2 min, to 85% in 15 min, held 3 min, 100 µL/min
Settings: column: Zorbax Extend-C18 2.1 x 50 mm; eluents: water / acetonitrile, 0.1% formic acid
Outline: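 The system's dead and dwell volumes were 40 μL and 900 μL, with a Zorbax Extend-C18 column (2.1 × 50 mm, 1.8 μm) run at 100 μL/min in water and acetonitrile containing 0.1% formic acid each. Pure standards were analyzed in mixtures of ~100 molecules by HPLC–quadrupole time-of-flight mass spectrometry in positive and negative ionization mode. Retention time was assigned from computationally picked, manually inspected adduct peaks.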

| Structure (SMILES) | RP-LC retention time [s] |
| --- | --- |
| COCCc1noc([C@@H]2CN(Cc3ccc(C(C)C)cc3)C[C@H]2CO)n1 | 663 |
| Cc1nc(-c2csc(S(=O)(=O)N3CCC(C(=O)Nc4cccc(Cl)c4)CC3)c2)no1 | 1000 |
| COc1cc(NC(=O)C(=O)c2cccn2C)cc(OC)c1 | 976 |
| CN(C)[C@@H]1CN(Cc2cccc(C#N)c2)C[C@H]1CO | 518 |
| Cc1nn(C2CCS(=O)(=O)C2)c(C)c1C(=O)O (configuration not stated) | 571 |
| O=C1CCc2cc(S(=O)(=O)NCc3ccco3)cc3c2N1CCC3 | 677 |
| CC1=C(C(=O)NCCCN2CC(C)CC(C)C2)C2(CCN(Cc3ccccc3)CC2)OC1=O (configuration not stated) | 567 |
| O=C(NCc1cccc(F)c1)c1cc(N2CCCC2)n2nccc2n1 | 946 |
| O=C(CN1C(=O)COc2ccc(C(=O)N3CCCCC3)cc21)NCc1ccco1 | 691 |
| CC(C)S(=O)(=O)c1ccc(C(=O)Nc2onc3c2CCCC3)cc1 | 732 |
| CCOC(=O)C1CCC(CNC(=O)Nc2ccc(-c3nc(-c4ccc(C)cc4C)co3)cc2)CC1 (configuration not stated) | 1240 |
| O=C(c1ccc(-c2ccsc2)nc1)N1CCN(c2ccccn2)CC1 | 604 |
| CCN1C(=O)C(C)(C(=O)Nc2ccc(OC)cc2)Oc2cccnc21 (configuration not stated) | 827 |
| O=C(NC1CCN(c2cc(-c3ccc(F)cc3)[nH]n2)C1)c1cccc(OC(F)(F)F)c1 (configuration not stated) | 840 |
| Cc1cccc(NC(=O)c2cnc3c(c2)c(=O)n(C)c(=O)n3-c2ccccc2)c1 | 926 |
| Cc1cccc(-c2noc(C3CCCN3S(=O)(=O)c3ccc4c(c3)CCCC4)n2)c1 (configuration not stated) | 1340 |
| Cc1ccc(/C=C/S(=O)(=O)N2CCN(c3ccc(-c4cccs4)nn3)CC2)cc1 | 929 |
| COc1ccc(CN2CN=C(Nc3nc(C)c4cc(C)ccc4n3)NC2)cc1 | 766 |
| CC(=O)Nc1ccc(Br)cc1C(=O)C(=O)NCCc1c[nH]c2ccccc12 | 876 |

| Structure (SMILES) | RP-LC retention time [s] |
| --- | --- |
| COc1ccc(C(=O)NC2CCN(c3cc(-c4ccc(Cl)cc4)[nH]n3)C2)cn1 (configuration not stated) | 732 |
| Cc1ccccc1CNS(=O)(=O)c1cn(C(C)C)c2ncccc12 | 960 |
| CN1C(=O)C(c2c(-c3ccc(Br)cc3)[nH]c3[nH]c(=O)[nH]c(=O)c23)c2ccccc21 (configuration not stated) | 721 |
| O=C(C1CCCO1)N1CCc2ccc(NS(=O)(=O)c3ccc(F)c(Cl)c3)cc21 (configuration not stated) | 813 |
| COc1ccc(C(=O)NCc2ccc(OCCN(C)C)cc2)cc1OC | 638 |
| Cc1ccsc1CN1CCn2nnc(CCC(=O)N3CCCC3)c2C1 | 646 |
| CN1CCN(C(CNC(=O)C(=O)Nc2ccc(F)cc2F)c2ccc3c(c2)OCO3)CC1 (configuration not stated) | 685 |
| COc1ccc(OCc2nnc3sc(-c4cc5ccccc5o4)nn23)cc1 | 984 |
| Cc1cccc(-c2nnc(-c3nc(NCc4ccco4)c4ccccc4n3)o2)c1 | 1010 |
| CC(C)NC(=O)CCC(=O)N1CCCn2nc(-c3cn(C)c4ccccc34)cc21 | 718 |
| Cc1ccc(NC(=O)CSc2ccc(N3CCCC(C(=O)NC4CC4)C3)nn2)cc1Cl (configuration not stated) | 698 |
| Cc1ccc(C)c(-c2cc3c(=O)n(Cc4noc(-c5ccc6c(c5)OCO6)n4)ccn3n2)c1 | 1120 |
| Cn1c(=O)sc2cc(S(=O)(=O)N3CCC(C(=O)Nc4cccc(C#N)c4)CC3)ccc21 | 860 |
| CC(Cc1ccco1)NC(=O)C1CCN(S(=O)(=O)c2ccc3c(c2)sc(=O)n3C(C)C)CC1 (configuration not stated) | 920 |
| CCc1ccc(NC(=O)Cn2nc3cc(-c4ccccc4)nc(C)n3c2=O)cc1 | 899 |
| Cn1nc(C(=O)Nc2ccc(CC(=O)NCC(F)(F)F)cc2)ccc1=O | 622 |
| Cc1ccc(-n2nc(C)c(S(=O)(=O)N3CCN(c4ccccn4)CC3)c2C)cc1 | 721 |
| CCn1c(SCC(=O)Nc2nc(-c3ccc(C)cc3)cs2)nnc1-c1cc2ccccc2o1 | 1140 |
| Cc1ccc(-c2nc(-c3ccc4c(c3)ncn4CCN3CCCCC3)no2)s1 | 646 |

| Structure (SMILES) | RP-LC retention time [s] |
| --- | --- |
| Cc1ccc(C)c(NC(=O)CN2C(=O)NC3(CCC(C)CC3)C2=O)c1 (configuration not stated) | 777 |
| Cc1[nH]c(-c2ccc(F)cc2)cc1C(=O)N1CC=C(c2ccccc2)CC1 | 1030 |
| COc1ccccc1NC(=O)c1cn(CC2CCCO2)cc2c(=O)n(-c3ccccc3)nc1-2 (configuration not stated) | 983 |
| COc1ccc2[nH]cc(CCNC(=O)Cn3c4ccccc4c4cnn(C)c(=O)c43)c2c1 | 767 |
| Clc1ccc(-c2nc3ncccn3c2Nc2ccccc2)cc1 | 818 |
| COc1cc(OC)cc(C(=O)Nc2nc(C(=O)NC(C)c3ccccc3)cs2)c1 (configuration not stated) | 873 |
| C=C1C(=O)[C@]23[C@H](O)[C@H]1CC[C@H]2[C@@]12CO[C@]3(O)[C@@H](O)[C@@H]1C(C)(C)CC[C@@H]2O | 794 |
| O=C(CSc1ccc(F)cc1)NCC(O)(c1ccccc1)C(F)(F)F (configuration not stated) | 887 |
| O=C(c1ccncn1)N1CC(F)(F)C[C@H]1COc1ccc2c(c1)CCC2 | 1020 |
| Cc1ccc(C(=O)NC2CCN(c3cc(-c4cccs4)[nH]n3)C2)cc1F (configuration not stated) | 798 |
| CN(C)C(=O)c1n[nH]c2c1CN(C(=O)c1ccc(F)cc1F)CC2 | 629 |
| CCOc1ccc2nc(NC(=O)C3CCN(c4ccc(-n5cccn5)nn4)CC3)sc2c1 | 780 |
| O=C(c1cccc(Br)c1)N1CCN(c2cc(-c3cccs3)[nH]n2)CC1 | 837 |
| O=C(C1CCN(c2ccc(Cl)cc2)C1=O)N1CCN(c2ccccn2)CC1 (configuration not stated) | 634 |
| CC(C)NC(=O)C1CCN(c2nc3ccc(-c4cncnc4)nc3s2)CC1 | 703 |
| O=C(Cn1cccc(-c2nc(-c3ccccc3)no2)c1=O)Nc1ccc(Br)cc1 | 968 |
| COc1ccc(-c2nccn3cc(C(=O)O)nc23)cc1 | 672 |
| Cn1c(N2CCCC(C(=O)Nc3ccccc3)C2)cc(=O)n(C)c1=O (configuration not stated) | 649 |
| Cn1cnnc1SCC(=O)N1CCCCCC1 | 581 |

The remaining lines, values ahead:

| RP-LC retention time [s] | Structure (SMILES) |
| --- | --- |
| 879 | Cc1c(C(=O)N2CCN(c3ccccn3)CC2)oc2ccc3c(c12)C(=O)CC1(CCCCCC1)O3 |
| 1010 | COC(=O)C1=CN(C2CC2)c2cc(N3CCC(C)CC3)c(F)cc2S1(=O)=O |
| 1260 | CCOc1nc2c(c(C)nn2-c2cccc(C)c2)c(C)c1CCC(=O)NCCc1c[nH]c2ccccc12 |
| 837 | Cc1cccc(-c2noc(-c3cc(N4CCN(C)CC4)nc4ccccc34)n2)c1 |
| 758 | CNC(=O)[C@@H]1CN(S(=O)(=O)c2ccc(Cl)s2)C[C@H]1c1nc(C)no1 |
| 723 | CCCNC(=O)CC1Sc2ncccc2N(CC(C)C)C1=O (configuration not stated) |
| 1210 | Cc1ccc(-c2csc(NC(=O)Cc3csc(-c4ccccc4)n3)n2)cc1 |
| 628 | O=C(NC1CCN(C(=O)c2cn(-c3ccc(Cl)cc3)nn2)CC1)c1cccs1 |
| 770 | Cc1ccc(N2CCN(c3nc(C(=O)O)cs3)CC2)cc1 |
| 658 | Cc1nnc2cc(N3CCN(C(=O)Nc4ccc(F)c(Cl)c4)CC3)cnn12 |
| 905 | CCn1c(=O)sc2cc(S(=O)(=O)N3CCC(C(=O)NCc4ccccc4Cl)CC3)ccc21 |
| 746 | CCCC(=O)Nc1ccc2nc(N3CCN(c4cc(Cl)ccc4C)CC3)cc(C(=O)O)c2c1 |
| 803 | Cn1nnc2cc(-c3noc(CN4C(=O)COc5ccccc54)n3)ccc21 |
| 602 | Cc1nnsc1C(=O)NCC1(O)CCCC1 |
| 605 | O=C(CCC[C@@H]1[C@H]2CCCN3CCC[C@@H](CN1C(=O)c1cc(F)cc(F)c1)[C@@H]23)N1CCOCC1 |
| 680 | Cn1cc(C(CNC(=O)Nc2ccccc2)c2cccnc2)c2ccccc21 (configuration not stated) |
| 1140 | COc1ccc(OC)c(S(=O)(=O)N2CCC(c3noc(-c4ccccc4C)n3)CC2)c1 |
| 726 | O=C(Cn1ccc2ccccc21)Nc1ccc2cn[nH]c2c1 |
| 955 | CCc1csc(-c2ccc(N3CCN(C(=O)c4ccc(F)c(F)c4)CC3)nc2)n1 |
| 563 | COc1ccc(CCNC(=O)C2CCc3nc(N4CCCC4)ncc3C2)cc1OC (configuration not stated) |
| 677 | CCNc1nc(C)cc(N2CCN(S(=O)(=O)c3ccc(OC)cc3)CC2)n1 |
| 762 | Cc1cc(C)c(C)c(S(=O)(=O)N2CCC3(CCN(c4cccnc4)C3)C2)c1C (configuration not stated) |
| 888 | COc1ccc(CC2C(=O)Nc3ccc(Cl)cc32)cc1 (configuration not stated) |
| 719 | COCCNC(=O)c1cc2c(=O)n(Cc3ccccc3)ccc2s1 |
| 964 | CCCCn1cc(S(=O)(=O)NCc2cccc(F)c2)c2cccnc21 |
| 1190 | CCCN1C(=O)COc2cc(-c3noc(C(=O)N4CCN(c5ccc(Cl)cc5)CC4)n3)ccc21 |
| 636 | Cc1ccc(NC(=O)Cn2c(N3CCCC3)nc(C)cc2=O)cc1 |
| 684 | CCNC(=O)C1CCCN(S(=O)(=O)c2ccc(OC)c(OC)c2)C1 (configuration not stated) |
| 670 | Cc1nc2ccn(Cc3cccs3)c(=O)c2cc1C(=O)NCC1CCCO1 (configuration not stated) |
| 810 | CCn1c(=O)c2c(cc(C)n2C)n(CC(=O)Nc2cc(Cl)ccc2C)c1=O |

Source: the METLIN SMRT retention time set (Domingo-Almenara et al. 2019)
